Calls of active or inactive are those of the source. How the calls were made is not given here.
Tested on: CCRIS mutagenicity, Ames/micronucleus/aberration tests
Experiment: CCRIS mutagenicity studies
[1] = Test System: AMES SALMONELLA TYPHIMURIUM, Strain/Indicator: TA100, Metabolic Activation: NONE, Method: STANDARD PLATE
[2] = Test System: AMES SALMONELLA TYPHIMURIUM, Strain/Indicator: TA100, Metabolic Activation: RAT, LIVER, S-9, AROCLOR 1254, Method: STANDARD PLATE
[3] = Test System: AMES SALMONELLA TYPHIMURIUM, Strain/Indicator: TA100, Metabolic Activation: S-9, Method: STANDARD PLATE
[4] = Test System: AMES SALMONELLA TYPHIMURIUM, Strain/Indicator: TA98, Metabolic Activation: NONE, Method: STANDARD PLATE

## Cc1cccc(Nc2cc(Cl)nc(SCC(=O)NCCO)n2)c1C
Test System: AMES SALMONELLA TYPHIMURIUM, Strain/Indicator: TA98, Metabolic Activation: NONE
  mutagenic call: inactive; negative
Test System: AMES SALMONELLA TYPHIMURIUM, Strain/Indicator: TA98, Metabolic Activation: RAT, LIVER, S-9, AROCLOR 1254
  mutagenic call: inactive; negative
Test System: AMES SALMONELLA TYPHIMURIUM, Strain/Indicator: TA102, Metabolic Activation: NONE
  mutagenic call: inactive; negative
Test System: AMES SALMONELLA TYPHIMURIUM, Strain/Indicator: TA102, Metabolic Activation: RAT, LIVER, S-9, AROCLOR 1254
  mutagenic call: inactive; negative
Test System: AMES SALMONELLA TYPHIMURIUM, Strain/Indicator: TA104, Metabolic Activation: NONE
  mutagenic call: inactive; negative
Test System: AMES SALMONELLA TYPHIMURIUM, Strain/Indicator: TA104, Metabolic Activation: RAT, LIVER, S-9, AROCLOR 1254
  mutagenic call: inactive; negative
Test System: UDS RAT HEPATOCYTES, Strain/Indicator: THY INCORP, Metabolic Activation: NONE, Method: LIQUID SCINTILLATION COUNTING
  mutagenic call: active; positive

## CN(C)S(=O)(=O)CCNC(=O)N(CCCl)N=O
[1]
  mutagenic call: active; positive
[2]
  mutagenic call: active; positive

## COc1ccccc1NCSC
Test System: AMES SALMONELLA TYPHIMURIUM, Strain/Indicator: TA98, Metabolic Activation: NONE, Method: SPOT TEST
  mutagenic call: inactive; negative
Test System: AMES SALMONELLA TYPHIMURIUM, Strain/Indicator: TA98, Metabolic Activation: RAT, LIVER, S-9, AROCLOR 1254, Method: SPOT TEST
  mutagenic call: active; positive
Test System: AMES SALMONELLA TYPHIMURIUM, Strain/Indicator: TA100, Metabolic Activation: NONE, Method: SPOT TEST
  mutagenic call: active; positive
Test System: AMES SALMONELLA TYPHIMURIUM, Strain/Indicator: TA100, Metabolic Activation: RAT, LIVER, S-9, AROCLOR 1254, Method: SPOT TEST
  mutagenic call: active; positive
Test System: AMES SALMONELLA TYPHIMURIUM, Strain/Indicator: TA102, Metabolic Activation: NONE, Method: SPOT TEST
  mutagenic call: inactive; negative
Test System: AMES SALMONELLA TYPHIMURIUM, Strain/Indicator: TA102, Metabolic Activation: RAT, LIVER, S-9, AROCLOR 1254, Method: SPOT TEST
  mutagenic call: active; positive

## Cc1ccc2cc3c(ccc4ccccc43)cc2c1
Test System: AMES SALMONELLA TYPHIMURIUM, Strain/Indicator: TA100, Metabolic Activation: RAT, INTACT HEPATOCYTES, AROCLOR 1254, Method: PREINCUBATION
  mutagenic call: active; positive
Test System: AMES SALMONELLA TYPHIMURIUM, Strain/Indicator: TA100, Metabolic Activation: RAT, NADPH-FORTIFIED HOMOGENIZED HEPATOCYTES, AROCLOR 1254, Method: PREINCUBATION
  mutagenic call: active; positive
Test System: AMES SALMONELLA TYPHIMURIUM, Strain/Indicator: TA100, Metabolic Activation: RAT, SONICATED HEPATOCYTES, AROCLOR 1254, Method: PREINCUBATION
  mutagenic call: active; positive

## Brc1c2ccccc2cc2c1ccc1ccccc12
Test System: AMES SALMONELLA TYPHIMURIUM, Strain/Indicator: TA100, Metabolic Activation: RAT, LIVER, S-9, PCB, Method: STANDARD PLATE
  mutagenic call: active; positive

## CCC(=O)Nc1snc2ccccc12
[1]
  mutagenic call: inactive; negative
[3]
  mutagenic call: inactive; negative
Test System: AMES SALMONELLA TYPHIMURIUM, Strain/Indicator: TA1537, Metabolic Activation: NONE, Method: STANDARD PLATE
  mutagenic call: inactive; negative
Test System: AMES SALMONELLA TYPHIMURIUM, Strain/Indicator: TA1537, Metabolic Activation: S-9, Method: STANDARD PLATE
  mutagenic call: inactive; negative

## Cc1cccc2c1ccc1cc(C(C)C)ccc12
[1]
  mutagenic call: inactive; negative
[2]
  mutagenic call: inactive; negative

## O=Nc1cccc(-c2ccccc2)c1
[4]
  mutagenic call: active; positive
[1]
  mutagenic call: active; positive

## Cc1ccccc1C
Test System: AMES SALMONELLA TYPHIMURIUM, Strain/Indicator: TA98, Metabolic Activation: HAMSTER, LIVER, S-9, AROCLOR 1254, Method: PREINCUBATION
  mutagenic call: inactive; negative
Test System: AMES SALMONELLA TYPHIMURIUM, Strain/Indicator: TA98, Metabolic Activation: NONE, Method: PREINCUBATION
  mutagenic call: inactive; negative
[4]
  mutagenic call: inactive; negative
Test System: AMES SALMONELLA TYPHIMURIUM, Strain/Indicator: TA98, Metabolic Activation: RAT, LIVER, S-9, AROCLOR 1254, Method: PREINCUBATION
  mutagenic call: inactive; negative
Test System: AMES SALMONELLA TYPHIMURIUM, Strain/Indicator: TA98, Metabolic Activation: RAT, LIVER, S-9, AROCLOR, Method: STANDARD PLATE
  mutagenic call: inactive; negative
Test System: AMES SALMONELLA TYPHIMURIUM, Strain/Indicator: TA100, Metabolic Activation: HAMSTER, LIVER, S-9, AROCLOR 1254, Method: PREINCUBATION
  mutagenic call: inactive; negative
Test System: AMES SALMONELLA TYPHIMURIUM, Strain/Indicator: TA100, Metabolic Activation: NONE, Method: PREINCUBATION
  mutagenic call: inactive; negative
[1]
  mutagenic call: inactive; negative
Test System: AMES SALMONELLA TYPHIMURIUM, Strain/Indicator: TA100, Metabolic Activation: RAT, LIVER, S-9, AROCLOR 1254, Method: PREINCUBATION
  mutagenic call: inactive; negative
Test System: AMES SALMONELLA TYPHIMURIUM, Strain/Indicator: TA100, Metabolic Activation: RAT, LIVER, S-9, AROCLOR, Method: STANDARD PLATE
  mutagenic call: inactive; negative
Test System: AMES SALMONELLA TYPHIMURIUM, Strain/Indicator: TA1535, Metabolic Activation: HAMSTER, LIVER, S-9, AROCLOR 1254, Method: PREINCUBATION
  mutagenic call: inactive; negative
Test System: AMES SALMONELLA TYPHIMURIUM, Strain/Indicator: TA1535, Metabolic Activation: NONE, Method: PREINCUBATION
  mutagenic call: inactive; negative
Test System: AMES SALMONELLA TYPHIMURIUM, Strain/Indicator: TA1535, Metabolic Activation: RAT, LIVER, S-9, AROCLOR 1254, Method: PREINCUBATION
  mutagenic call: inactive; negative
Test System: AMES SALMONELLA TYPHIMURIUM, Strain/Indicator: TA1537, Metabolic Activation: HAMSTER, LIVER, S-9, AROCLOR 1254, Method: PREINCUBATION
  mutagenic call: inactive; negative
Test System: AMES SALMONELLA TYPHIMURIUM, Strain/Indicator: TA1537, Metabolic Activation: NONE, Method: PREINCUBATION
  mutagenic call: inactive; negative
Test System: AMES SALMONELLA TYPHIMURIUM, Strain/Indicator: TA1537, Metabolic Activation: RAT, LIVER, S-9, AROCLOR 1254, Method: PREINCUBATION
  mutagenic call: inactive; negative
Test System: AMES SALMONELLA TYPHIMURIUM, Strain/Indicator: UTH8413, Metabolic Activation: NONE, Method: STANDARD PLATE
  mutagenic call: inactive; negative
Test System: AMES SALMONELLA TYPHIMURIUM, Strain/Indicator: UTH8413, Metabolic Activation: RAT, LIVER, S-9, AROCLOR, Method: STANDARD PLATE
  mutagenic call: inactive; negative
Test System: AMES SALMONELLA TYPHIMURIUM, Strain/Indicator: UTH8414, Metabolic Activation: NONE, Method: STANDARD PLATE
  mutagenic call: inactive; negative
Test System: AMES SALMONELLA TYPHIMURIUM, Strain/Indicator: UTH8414, Metabolic Activation: RAT, LIVER, S-9, AROCLOR, Method: STANDARD PLATE
  mutagenic call: inactive; negative

## O=[N+]([O-])C1=Cc2cccc3cccc(c23)O1
[4]
  mutagenic call: inactive; negative
Test System: AMES SALMONELLA TYPHIMURIUM, Strain/Indicator: TA98, Metabolic Activation: S-9, Method: STANDARD PLATE
  mutagenic call: inactive; negative
[1]
  mutagenic call: active; positive
[3]
  mutagenic call: inactive; negative
